From patent publication US9708338B2, “Aromatic heterocyclylamine derivative having TRPV4-inhibiting activity” (Shionogi & Co., Ltd., priority 2013, dated 2017)

Tests used:
CYP3A4 = target: T1, CYP3A4 (Homo sapiens, UniProt P08684); assay: Test Example 3 CYP3A4 fluorescent MBI test; type: in vitro ADME; details: CYP3A4 expressed in Escherichia coli; substrate 7-BFC; pre-reaction time 0 or 30 minutes
T1 construct: host or cells: Escherichia coli
Protocol: The CYP3A4 fluorescent MBI test is a test of investigating enhancement of CYP3A4 inhibition of a compound of the present invention by a metabolism reaction, and the test was performed using, as CYP3A4 enzyme expressed in Escherichia coli and employing, as an index, a reaction in which 7-benzyloxytrifluoromethylchmarin (7-BFC) is debenzylated by the CYP3A4 enzyme to produce a metabolite, 7-hydroxytrifluoromethylchmarin (7-HFC) emitting fluorescent light.
The reaction conditions were as follows: substrate, 5.6 μmol/L 7-BFC; pre-reaction time, 0 or 30 minutes; reaction time, 15 minutes; reaction temperature, 25° C. […]
An enzyme in a K-Pi buffer (pH 7.4) and a solution of a compound of the present invention as a pre-reaction mixture were added to a 96-well plate at the above composition of the pre-reaction, a part of it was transferred to another 96-well plate so that it was 1/10 diluted by a substrate in a K-Pi buffer, NADPH as a co-factor was added to initiate a reaction as an index (without preincubation) and, after a predetermined time of a reaction, acetonitrile/0.5 mol/L Tris (trishydroxyaminomethane)=4/1 (v/v) was added to stop the reaction. […] For the plate on which each index reaction had been performed, a fluorescent value of 7-HFC which is a metabolite was measured with a fluorescent plate reader. […]

[1] = Test Example 7 Metabolism stability test; type: in vitro ADME; details: 0.5 μmol/L of test compound, human liver microsomes 0.5 mg protein/mL, 37° C.
Protocol: Using commercially available pooled human hepatic microsomes, a compound of the present invention was reacted for a constant time, and a remaining rate was calculated by comparing a reacted sample and an unreacted sample, thereby, a degree of metabolism in liver was assessed.
A reaction was performed (oxidative reaction) at 37° C. for 0 minute or 30 minutes in the presence of 1 mmol/L NADPH in 0.2 mL of a buffer (50 mmol/L Tris-HCl pH 7.4, 150 mmol/L potassium chloride, 10 mmol/L magnesium chloride) containing 0.5 mg protein/mL of human liver microsomes. After the reaction, 50 μL of the reaction solution was added to 100 μL of a methanol/acetonitrile=1/1 (v/v), mixed and centrifuged at 3000 rpm for 15 minutes. The compound of the present invention in the supernatant was quantified by LC/MS/MS, and a remaining amount of the compound of the present invention after the reaction was calculated, letting a compound amount at 0 minute reaction time to be 100%. Hydrolysis reaction was performed in the absence of NADPH and glucuronidation reaction was in the presence of 5 mmol/L UDP-glucuronic acid in place of NADPH, followed by similar operations. (Result) % inhibition was shown at 0.5 μmol/L of test compound.

human TRPV4 [2] = target: T2, human TRPV4 (Homo sapiens, UniProt Q9HBA0); assay: Test Example 1 Measurement of TRPV4 inhibitory activity (IC50 value); type: cell-based; details: CHO-K1 cells stably expressing human TRPV4; Fluo 4-AM, FLIPR TETRA; final 1 μmol/L 4α-PDD
T2 construct: expressed in transfected cells; host or cells: CHO-K1
T2 sequence (Q9HBA0 whole entry): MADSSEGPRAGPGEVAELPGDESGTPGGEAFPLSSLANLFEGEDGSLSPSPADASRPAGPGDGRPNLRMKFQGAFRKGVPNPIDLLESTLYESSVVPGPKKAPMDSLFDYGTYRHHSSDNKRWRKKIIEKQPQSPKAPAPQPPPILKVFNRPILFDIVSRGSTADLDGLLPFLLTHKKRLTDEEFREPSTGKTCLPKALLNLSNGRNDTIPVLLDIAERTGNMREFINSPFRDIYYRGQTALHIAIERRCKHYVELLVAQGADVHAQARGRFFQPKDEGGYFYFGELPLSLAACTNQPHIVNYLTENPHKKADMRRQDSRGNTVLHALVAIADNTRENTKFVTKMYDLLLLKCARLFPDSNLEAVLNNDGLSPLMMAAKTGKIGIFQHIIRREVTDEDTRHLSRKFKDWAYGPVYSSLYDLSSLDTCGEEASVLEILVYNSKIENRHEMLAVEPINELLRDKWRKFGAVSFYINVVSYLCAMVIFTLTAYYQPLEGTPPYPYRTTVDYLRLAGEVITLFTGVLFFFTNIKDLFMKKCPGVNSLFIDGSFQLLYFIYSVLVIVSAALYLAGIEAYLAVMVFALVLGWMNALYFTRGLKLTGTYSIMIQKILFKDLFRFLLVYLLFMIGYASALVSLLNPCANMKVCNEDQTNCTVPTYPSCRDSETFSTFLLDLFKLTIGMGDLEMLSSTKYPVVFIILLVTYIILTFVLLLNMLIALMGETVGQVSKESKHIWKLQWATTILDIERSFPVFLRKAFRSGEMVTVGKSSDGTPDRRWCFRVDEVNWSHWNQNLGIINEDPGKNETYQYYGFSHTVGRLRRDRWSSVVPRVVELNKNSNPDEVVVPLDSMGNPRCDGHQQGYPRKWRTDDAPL
Protocol: (§1) For each compound, TRPV4 inhibitory activity was measured using cells. (Method) TRPV4 inhibitory activity of the compound was evaluated in accordance with the following procedure.
(§2) (1) The TRPV4 inhibitory activity was measured using CHO-K1 cells stably expressing human TRPV4.
(2) In the day before the experimental day, frozen cell were thawed and washed with the culture medium (MEM-α, 10% FBS, 2 mmol/L GlutaMax, 50 unit Penicillin, 50 μg/mL Streptomycin, 20 mmol/L HEPES). Then cells were suspended in the culture medium.
(3) The 384-well plates which hTRPV4/CHO cells were seeded at densities of 4000 cells/well in the culture medium and cultured in a CO2 incubator in the presence of 5% CO2 at 37° C. for overnight was used as assay plates.
(4) The assay plate was washed with assay buffer (Hanks, 20 mmol/L HEPES, 2.5 mmol/L probenecid, pH 7.4), and the buffer were remained at 20 μL/well.
(5) 10 μl of dye loading buffer (9 μmol/L Fluo 4-AM, 0.09% Pluronic F-127/assay buffer) was added to each well, then the assay plate was incubated in a CO2 incubator in the presence of 5% CO2 at 37° C. for one hour (final 3 μmol/L Fluo4-AM).
(6) The assay plate was washed with the assay buffer, and the buffers were remained at 20 μL/well. Then the assay plate was incubated for 10 min at room temperature.
(7) 20 μL/well of diluted compound solution was dispensed to each well in the compound plate, and mixed with built-in Pipette and Mixer of the Fluorescence analysis system FLIPR TETRA (Molecular devices).
(8) After incubation for 5 min, 20 μL/well of 4α-PDD solution were applied to each well of assay plate and mixed with the FLIPR TETRA (final 1 μmol/L 4α-PDD).
(9) The fluorescent intensity was measured with FLIPR TETRA system for 5 min from the point of time addition the compound solution, at Ex 470-495 nm, Em 515-575 nm wavelength.
(§3) In addition, TRPV4 inhibitory activity (IC50 value) of a compound was evaluated according to the following procedure.
(10) In the presence of the compound, the difference between maximal and minimal of fluorescent intensity value for 5 min from just before addition of 4α-PDD solution was calculated, and it was referred as Max−Min value. Max−Min value of the compound A at 1 μmol/L was defined as 100% inhibitory activity, Max−Min value in the absence of the compound was defined as 0% inhibitory activity. The TRPV4 inhibitory activity of the compound was calculated by the following formula. Inhibition ratio=(1−(Max−Min value of the compound−100% inhibitory activity)/(0% inhibitory activity−100% inhibitory activity))×100
Herein, the compound A is the compound I-186 described in PCT/JP2013/058722.
(11) Inhibitory activity was calculated at 10 points with three fold serial dilution, in the final concentration of the compound from 10 μmol/L to 0.5 nmol/L, the IC50 value (nmol/L) was calculated by logistic approximation method.

human TRPV4 [3] = target: T2, human TRPV4; assay: Test Example 2' Measurement of TRPV4 inhibitory activity (IC50 value); type: cell-based; details: CHO-K1 cells stably expressing human TRPV4; DMEM 3% FBS, 3000 cells/well; final 0.15 μmol/L 4α-PDD
Protocol: as §1, §2
(2) In the day before the experimental day, frozen cell were thawed and washed with the culture medium (DMEM, 3% FBS, 2 mmol/L GlutaMax, 50 unit Penicillin, 50 μg/mL Streptomycin, 0.1 mmol/L Non-Essential Amino Acids, 25 mmol/L HEPES). Then cells were suspended in the culture medium. […] (7) 20 μL/well of diluted compound solution was dispensed to each well in the compound plate, and mixed with built-in Pipette and Mixer of the Fluorescence analysis system FLIPR TETRA (Molecular devices). […] (9) The fluorescent intensity was measured with FLIPR TETRA system for 5 min from the point of time addition the compound solution, at Ex 470-495 nm, Em 515-575 nm wavelength.
as §3
(10) In the presence of the compound, the difference between maximal and minimal of fluorescent intensity value for 5 min from just before addition of 4α-PDD solution was calculated, and it was referred as Max−Min value. […] The TRPV4 inhibitory activity of the compound was calculated by the following formula. […]

[4] = target: T3, human ether-a-go-go related gene (hERG) channel (Homo sapiens, UniProt Q12809); assay: Test Example 8 hERG test; type: cell-based; details: 1 μmol/L of test compound; CHO cells expressing hERG; whole cell patch clamp (QPatch)
T3 construct: expressed in transfected cells; host or cells: CHO
T3 sequence (Q12809 whole entry): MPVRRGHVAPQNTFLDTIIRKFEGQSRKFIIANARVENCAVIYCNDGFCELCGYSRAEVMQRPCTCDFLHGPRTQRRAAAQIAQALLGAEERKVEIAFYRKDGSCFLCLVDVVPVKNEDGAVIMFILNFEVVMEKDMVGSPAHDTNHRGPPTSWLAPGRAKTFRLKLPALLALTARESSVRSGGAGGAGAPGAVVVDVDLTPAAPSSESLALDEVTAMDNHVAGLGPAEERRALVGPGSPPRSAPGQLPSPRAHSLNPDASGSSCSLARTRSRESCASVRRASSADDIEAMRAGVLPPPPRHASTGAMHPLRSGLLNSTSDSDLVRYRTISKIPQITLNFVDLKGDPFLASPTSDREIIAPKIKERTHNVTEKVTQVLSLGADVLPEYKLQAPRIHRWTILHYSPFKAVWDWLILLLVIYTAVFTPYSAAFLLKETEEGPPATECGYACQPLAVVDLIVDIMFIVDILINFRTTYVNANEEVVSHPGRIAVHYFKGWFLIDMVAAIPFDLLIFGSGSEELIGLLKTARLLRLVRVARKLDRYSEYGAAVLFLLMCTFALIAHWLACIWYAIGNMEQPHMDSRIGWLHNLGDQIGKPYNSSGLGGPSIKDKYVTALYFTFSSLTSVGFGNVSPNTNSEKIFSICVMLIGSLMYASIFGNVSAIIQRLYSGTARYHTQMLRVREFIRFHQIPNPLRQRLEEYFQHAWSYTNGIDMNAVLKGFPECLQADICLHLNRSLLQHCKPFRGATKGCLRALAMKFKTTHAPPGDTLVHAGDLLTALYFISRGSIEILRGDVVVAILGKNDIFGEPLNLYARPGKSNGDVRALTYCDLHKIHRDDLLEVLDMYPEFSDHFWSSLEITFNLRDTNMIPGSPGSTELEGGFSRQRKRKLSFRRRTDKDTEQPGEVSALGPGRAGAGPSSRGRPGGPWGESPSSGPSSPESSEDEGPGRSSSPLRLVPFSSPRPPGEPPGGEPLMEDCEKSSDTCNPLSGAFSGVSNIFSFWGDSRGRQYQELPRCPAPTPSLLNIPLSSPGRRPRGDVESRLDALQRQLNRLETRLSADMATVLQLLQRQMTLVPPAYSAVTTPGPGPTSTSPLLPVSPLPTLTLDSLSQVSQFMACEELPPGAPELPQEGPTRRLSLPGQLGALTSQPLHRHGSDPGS
Text: For the purpose of assessing risk of an electrocardiogram QT interval prolongation of the compound of the present invention, effects of the compound of the present invention on delayed rectifier K^+ current (IKr), which plays an important role in the ventricular repolarization process, was studied using CHO cells expressing human ether-a-go-go related gene (hERG) channel.
After a cell was retained at a membrane potential of −80 mV by whole cell patch clamp method using an automated patch clamp system (QPatch; Sophion Bioscience A/S), IKr induced by depolarization pulse stimulation at +20 mV for 2 seconds and, further, repolarization pulse stimulation at −50 mV for 2 seconds, was recorded. […] From the recording IKr, an absolute value of the tail peak current was measured based on the current value at the resting membrane potential using analysis software (Falster Patch; Sophion Bioscience A/S). Further, the % inhibition relative to the tail peak current before application of the compound of the present invention was calculated, and compared with the vehicle-applied group (0.1% dimethyl sulfoxide solution) to assess influence of the compound of the present invention on IKr. […]

T1 sequence (P08684 whole entry): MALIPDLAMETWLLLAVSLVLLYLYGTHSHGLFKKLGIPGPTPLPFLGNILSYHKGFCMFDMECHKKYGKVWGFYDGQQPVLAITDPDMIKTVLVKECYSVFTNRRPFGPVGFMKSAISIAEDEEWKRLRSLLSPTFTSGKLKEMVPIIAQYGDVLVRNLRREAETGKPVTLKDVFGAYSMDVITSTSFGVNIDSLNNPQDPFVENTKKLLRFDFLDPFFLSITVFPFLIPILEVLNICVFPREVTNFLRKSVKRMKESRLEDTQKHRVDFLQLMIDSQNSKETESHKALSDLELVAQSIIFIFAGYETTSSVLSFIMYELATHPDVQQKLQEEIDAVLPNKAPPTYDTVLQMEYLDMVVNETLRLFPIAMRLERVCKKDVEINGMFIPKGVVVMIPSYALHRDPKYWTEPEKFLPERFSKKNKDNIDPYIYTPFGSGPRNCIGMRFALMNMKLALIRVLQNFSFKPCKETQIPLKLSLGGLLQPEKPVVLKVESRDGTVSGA

| Percent of compound remaining after 30 min incubation [1] | IC50 (human TRPV4 [2]) | IC50 (human TRPV4 [3]) | SMILES | CYP3A4 fluorescent MBI: difference between IC50 values (CYP3A4) | hERG % inhibition of tail peak current (IKr) [4] |
| --- | --- | --- | --- | --- | --- |
| 83.6% | 14 nM |  | Cc1nc(C(C)O)sc1-c1csc(Nc2ccc(CNc3ccc(Cl)cc3F)cn2)n1.Cl.Cl (stereo not shown) [Compound I-157] | (−) (when the difference is 3 μmol/L or less, this was defined as (−)) |  |
|  |  | 2.8 nM | Cc1nc(C)c(-c2csc(Nc3ccc(C(=O)C4CCCC4)cn3)n2)s1 [Compound I-897] |  |  |
| 78.6% | 1.2 nM |  | Cc1nc(C)c(-c2csc(Nc3ccc(CNc4ccc(Cl)cc4F)cn3)n2)s1 [Compound I-48] |  | 8.1% |
